Test results published in patent US20180207099A1, “NON-[…] FOR THE MIC[…] DIGOXIN” (priority 2015, published 2018).

Assay: Particle size of micronized digoxin obtained by the non-mechanical process
Assay type: physicochemical
Conditions: for >90% of the particles (number distribution); digoxin precipitated per Example 1
From the text: The digoxin thus obtained has a high purity and is ready to be incorporated in the usual pharmaceutical formulations, typically tablets; it has particle size of 20-30 micrometers for at least 90% of the particles, and is exempt from degradation products, as evident by a wholly neutral colour, and further confirmable analytically. In the present invention, the particle size distribution is meant as “number distribution” (thus not “volume distribution” or “mass distribution”); accordingly, any expressions of the type “x-y micrometers for at least m % of the particles” describes a particle distribution characterized in that at least m % of the number of particles making up the product have a size comprised between x and y micrometers; relevant particle size values can be measured by usual techniques, including laser diffraction, dynamic light scattering, dynamic image analysis, suitably equipped with data processing systems. The obtained digoxin can be formulated with common excipients. Suitable excipients are cellulose products like microcrystalline cellulose, cellulose ethers like methylcellulose, ethylcellulose, hydroxyethylcellulose, crosslinked polymers (e.g. polyplasdone XL, hyaluronic acid or alginic acid cross-linked with urea), gums from plants, etc. Common diluents like mannitol, fructose, as well as compression aids like magnesium stearate, can also be used. […]

With `C[C@H]1O[C@@H](O[C@H]2[C@@H](O)C[C@H](O[C@H]3[C@@H](O)C[C@H](O[C@H]4CC[C@@]5(C)[C@H](CC[C@@H]6[C@@H]5C[C@@H](O)[C@]5(C)[C@@H](C7=CC(=O)OC7)CC[C@]65O)C4)O[C@@H]3C)O[C@@H]2C)C[C@H](O)[C@@H]1O` [digoxin] the particle size was 20-30 micrometers.
